Measured values: the supplement of paper PMC8882468

Experiments:
Assay in all cases: CTG-3D luminescence at 96 h relative to day-0 seeding control (ratio to day 0); higher = more growth / less cytotoxicity; PDxO 3D drug screen, 96 h, CTG-3D normalised to day-0 seeding control.
HCI-003.E2 = system: HCI-003.E2 (organoid from an ER-positive breast cancer xenograft)
HCI-008 = system: HCI-008 (organoid from a HER2-enriched breast cancer xenograft)
HCI-010 = system: HCI-010 (organoid from a breast cancer xenograft)
HCI-012 = system: HCI-012 (organoid from a breast cancer xenograft)
HCI-016 = system: HCI-016 (organoid from a triple-negative breast cancer xenograft)
HCI-027 = system: HCI-027 (organoid from a triple-negative breast cancer xenograft)

CCc1c2c(nc3ccc(O)cc13)-c1cc3c(c(=O)n1C2)COC(=O)[C@]3(O)CC [SN-38]
HCI-003.E2
Settings	CTG-3D luminescence at 96 h
12.5 pM	2.07
0.00025 µM	2.06
0.005 µM	1.68
0.1 µM	1.64
1 µM	1.24
10 µM	0.339
100 µM	0.213
625 fM	1.94

CTG-3D luminescence at 96 h
Settings	12.5 pM	0.00025 µM	0.005 µM	0.1 µM	1 µM	10 µM	100 µM	625 fM
HCI-008, days in culture: 228	1.72	1.6	0.948	0.349	0.21	0.132	0.111	1.93
HCI-008, days in culture: 244	1.28	1.83	1.31	0.575	0.202	0.12	0.119	2.23
HCI-010, days in culture: 52	2.37	2.36	0.389	0.0916	0.0768	0.267	0.243	2.19
HCI-010, days in culture: 65	1.69	1.69	0.379	0.115	0.0812	0.317	0.334	0.54
HCI-010, days in culture: 103	3.57	3.27	0.516	0.116	0.145	0.599	0.576	2.96
HCI-012, days in culture: 143	1.85	2.16	0.415	0.0623	0.0329	0.0255	0.0169	1.9
HCI-012, days in culture: 162	2.38	1.99	0.295	0.0642	0.0329	0.0269	0.0164	2.73
HCI-012, days in culture: 201	2.31	1.99	0.824	0.0348	0.0248	0.0127	0.014	1.61
HCI-016, days in culture: 153	2.8	1.73	1.68	0.253	0.0495	0.0432	0.0259	2.02
HCI-016, days in culture: 172	2.16	2.11	1.21	0.157	0.0512	0.021	0.019	1.22
HCI-016, days in culture: 190	1.83	1.12	1.17	0.151	0.0473	0.0272	0.0195	1.25
HCI-016, days in culture: 199	1.87	1.62	1.36	0.126	0.0472	0.0229	0.0167	1.92
HCI-027, days in culture: 176	1.94	1.79	1.19	0.371	0.104	0.0345	0.0407	1.74
HCI-027, days in culture: 194	1.81	1.39	0.614	0.307	0.0805	0.0428	0.0357	1.66
HCI-027, days in culture: 201	2.6	2.5	0.717	0.272	0.0912	0.0373	0.029	2.46

COc1cc2c(Oc3ccc4[nH]c(C)cc4c3F)ncnc2cc1OCCCN1CCCC1 [cediranib]
HCI-003.E2
Settings	CTG-3D luminescence at 96 h
12.5 pM	2.13
0.00025 µM	2.53
0.005 µM	2.12
0.1 µM	2.33
1 µM	1.95
10 µM	0.251
100 µM	0.0212
625 fM	2.18

CTG-3D luminescence at 96 h
Settings	12.5 pM	0.00025 µM	0.005 µM	0.1 µM	1 µM	10 µM	100 µM	625 fM
HCI-008, days in culture: 228	1.83	1.99	1.53	2.02	1.69	-0.102	-0.136	1.51
HCI-008, days in culture: 244	1.25	1.7	1.65	2.04	1.62	0.0639	-0.000797	1.95
HCI-010, days in culture: 52	1.94	2.48	2.23	2.46	2.24	0.221	-0.0298	2.13
HCI-010, days in culture: 65	1.55	1.65	1.76	1.77	1.42	0.593	-0.00161	1.63
HCI-010, days in culture: 103	3.58	3.43	3.17	3.43	2.66	0.461	-0.00732	3.19
HCI-012, days in culture: 143	2.15	1.81	1.84	2.55	2.33	0.0236	-0.00161	2
HCI-012, days in culture: 162	2.22	1.99	1.54	2.43	2.26	0.0254	-0.00236	3.02
HCI-012, days in culture: 201	2.36	2.05	1.5	1.45	2.29	0.0167	-0.00095	1.66
HCI-016, days in culture: 153	3.21	2.24	2.18	2.54	3.03	0.161	-0.00356	2.44
HCI-016, days in culture: 172	2.32	2.05	1.6	1.62	1.55	0.397	-0.000672	1.64
HCI-016, days in culture: 190	1.57	1.2	1.45	1.43	1.44	0.423	5.93e-05	1.13
HCI-016, days in culture: 199	1.23	1.38	1.17	1.65	1.57	0.0517	-0.0032	1.73
HCI-027, days in culture: 176	1.99	1.2	2.24	1.46	2.56	0.0266	-0.00276	1.66
HCI-027, days in culture: 194	1.76	1.48	1.39	1.94	2.13	0.0281	-0.00212	1.47
HCI-027, days in culture: 201	2.17	1.9	1.78	1.87	2.39	0.0302	-0.000884	1.9
